# Measurements reported in article PMC8767786 (Nature structural & molecular biology, 2021).
# Target: T1, TRPM5 (Danio rerio, UniProt S5UH55)
# T1 sequence (S5UH55 1-1165): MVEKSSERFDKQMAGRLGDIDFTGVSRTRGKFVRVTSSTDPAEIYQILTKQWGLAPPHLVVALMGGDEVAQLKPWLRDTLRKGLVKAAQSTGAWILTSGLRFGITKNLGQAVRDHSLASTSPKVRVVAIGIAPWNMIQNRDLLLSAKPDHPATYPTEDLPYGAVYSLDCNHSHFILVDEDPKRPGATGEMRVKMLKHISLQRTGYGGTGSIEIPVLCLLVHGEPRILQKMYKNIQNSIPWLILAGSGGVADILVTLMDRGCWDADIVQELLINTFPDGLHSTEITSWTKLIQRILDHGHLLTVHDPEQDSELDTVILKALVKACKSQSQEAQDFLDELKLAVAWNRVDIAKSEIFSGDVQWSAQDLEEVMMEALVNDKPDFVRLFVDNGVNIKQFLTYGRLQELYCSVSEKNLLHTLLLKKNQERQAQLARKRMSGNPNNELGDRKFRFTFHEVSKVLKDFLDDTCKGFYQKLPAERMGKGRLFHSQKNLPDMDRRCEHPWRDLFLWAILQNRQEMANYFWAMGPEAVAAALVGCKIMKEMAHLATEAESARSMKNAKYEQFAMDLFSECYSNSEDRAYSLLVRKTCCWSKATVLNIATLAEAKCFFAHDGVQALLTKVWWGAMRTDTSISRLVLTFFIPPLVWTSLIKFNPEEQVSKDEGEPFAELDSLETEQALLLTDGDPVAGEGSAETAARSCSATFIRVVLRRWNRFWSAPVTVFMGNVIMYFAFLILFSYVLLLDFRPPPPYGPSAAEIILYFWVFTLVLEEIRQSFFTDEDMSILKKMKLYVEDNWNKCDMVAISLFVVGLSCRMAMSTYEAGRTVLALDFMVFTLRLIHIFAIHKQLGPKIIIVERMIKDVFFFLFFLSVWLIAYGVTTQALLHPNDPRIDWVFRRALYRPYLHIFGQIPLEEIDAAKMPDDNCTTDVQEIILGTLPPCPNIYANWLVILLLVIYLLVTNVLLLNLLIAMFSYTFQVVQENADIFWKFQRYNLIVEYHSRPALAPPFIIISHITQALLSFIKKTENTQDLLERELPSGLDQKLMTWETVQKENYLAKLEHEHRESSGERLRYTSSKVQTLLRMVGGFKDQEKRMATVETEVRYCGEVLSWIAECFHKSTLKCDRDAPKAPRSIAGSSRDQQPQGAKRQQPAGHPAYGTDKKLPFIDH
# Test: cryo-EM structure
# Format: cell-based
smiles,measurement,value
"COc1ccc(C=NNC(=O)Cc2cccc3ccccc23)cc1OC [NDNA, N’-(3,4-dimethoxybenzylidene)-2-(naphthalen-1-yl)acetohydrazide]",IC50,~2.4 nM
